Data: patent EP4635958A1, “PYRIMIDINE-CONTAINING POLYCYCLIC DERIVATIVE INHIBITOR, AND PREPARATION METHOD THEREFOR AND USE THEREOF” (Shanghai Hansoh Biomedical Co., Ltd., priority 2022, dated 2024)
Structures can show the parent of a compound that is named as a salt. Where two headings read alike, the source gives them in different places.

Experiments:
GP2D = assay: Inhibition of proliferation of KRAS G12D mutant tumor cell line GP2D (CellTiter-Glo); details: Homo sapiens, GP2d, 72 h, read-out: GP2D IC50
p-ERK in AGS cells = assay: Inhibition of p-ERK in AGS cells (LANCE Ultra phospho-ERK1/2 kit); format: cell-based; details: Homo sapiens, read-out: AGS_pERK IC50
Description: 1. Experimental objective: The inhibition activity of the example compounds on the phosphorylated ERK level in KRAS G12D mutant cells AGS was determined. 2. Experimental instruments: • 2.1 Instruments: Envison; Pipette (Eppendorf & Rainin) • 2.2 Reagents: AGS cells were purchased from COBIOER BIOSCIENCES CO., LTD, with a catalog number of CBP60476; Phosphorylated ERK1/2 (T202-Y204) LANCE Ultra Cellular Detection Kit was purchased from PerkinElmer, with a catalog number of TRF4000M; RPMI 1640 was purchased from Gibco, with a catalog number of 22400071; FBS was purchased from Gibco, with a catalog number of 10091148; PBS was purchased from Gibco, with a catalog number of 10010023; trypsin was purchased from Gibco, with a catalog number of 25200056; cell culture plates were purchased from Corning Company, with a catalog number of 3610; White opaque OptiPlate™-384 plates were purchased from PerkinElmer, with a catalog number of 6007290. 3. Experimental method: When AGS cells were cultured to appropriate confluence, the AGS cells were collected, and the cell density was adjusted to 4 × 10^5/mL using complete culture medium. The cell suspension was plated onto a 96-well plate at 100 µL per well, and the plate was placed in the incubator at 37°C and 5% CO2 for adherent culture overnight. Solutions of the compound with different concentrations were formulated using DMSO and complete culture medium, and a vehicle control was set up. The solutions of the compound were added to the 96-well plate at 25 µL per well, and the plate was placed in the incubator at 37°C and 5% CO2 for further culture for 2 h. Then, the supernatant of the cell culture plate was discarded, 50 µL of lysis buffer was added to each well, the cells were lysed at room temperature under shaking for 30 min, then placed in a centrifuge and centrifuged at 1000 rpm for 1 min. 15 µL of supernatant was transferred to a 384-well plate, 5 µL of detection mixture was added to each well (Eu-labeled anti-ERK1/2 (T202-Y204) Antibody at a final detection concentration of 0.5 nM and ULight labeled anti-ERK1/2 Antibody at a final detection concentration of 5 nM), centrifuged at 1000 rpm for 1 min, mixed evenly, and reacted at room temperature overnight. The plate was read using Envison and the signal values at the emission wavelengths of 620 nm and 665 nm were detected using a time-resolved fluorescence program. 4. […] Graphpad Prism software was used to fit the concentration and inhibition rate to a nonlinear regression curve, so as to obtain the IC50 value. Table 5: Inhibition activity of the compounds on p-ERK in AGS cells

[1] = Pharmacokinetic determination in rats (IV and PO, plasma, LCMS/MS); format: in vivo, SD rats; details: male SD rats; for AUC(0-inf): read-out: AUCo-∞; for half-life: read-out: T1/2 (converted)
In short: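 Male SD rats (3/group), fasted overnight, dosed PO at 30 mg/kg in 10% Captisol/50 mM citrate pH 5.0 or IV at 1 mg/kg in 5% DMSO/10% Solutol HS15/85% PBS. Jugular plasma (EDTA-2K) sampled predose to 24 h; analysed by LCMS/MS.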

[2] = rat, in vivo, IV, 1 mg/kg, overnight fasting, plasma
[3] = rat, in vivo, PO, 30 mg/kg, overnight fasting, plasma

Compound	IC50 (GP2D)	IC50 (p-ERK in AGS cells; AGS cells, 2 h with compound)	IC50 (p-ERK in AGS cells; AGS, 2 h)	F ([1]; PO 30 mg/kg vs IV 1 mg/kg)	AUC(0-inf) [1, 2]	C0 ([1]; rat, in vivo, IV, 1 mg/kg, overnight fasting, plasma, read-out: C0)	clearance ([1]; rat, in vivo, IV, 1 mg/kg, overnight fasting, plasma, read-out: CL)	half-life [1, 2]	AUC(0-inf) [1, 3]	Cmax ([1]; rat, in vivo, PO, 30 mg/kg, overnight fasting, plasma, read-out: Cmax)	half-life [1, 3]	Tmax ([1]; rat, in vivo, PO, 30 mg/kg, overnight fasting, plasma, read-out: Tmax)
[2H]C([2H])([2H])[C@@H]1Oc2nc(-c3cc(O)cc4ccc(F)c(C#C)c34)c(F)c3nc(OCC4(CN5CCC(=NOC)CC5)CC4)nc(c23)N2C[C@H]3CC[C@H](N3)[C@@H]12 [Example 338, 1-((1-((((5S,5aS,6S,9R)-2-(8-ethynyl-7-fluoro-3-hydroxynaphthalen-1-yl)-1-fluoro-5-deuteratedmethyl-5a,6,7,8,9,10-hexahydro-5H-4-oxa-3,10a,11,13, 14-pentaaza-6,9-methylenenaphtho[1,8-ab]heptalen-12-yl)oxo)methyl)cyclopropyl)methyl)piperidin-4-one O-methyloxime formate]	0.34 nM	2.8 nM	–	–	–	–	–	–	–	–	–	–
C#Cc1c(F)ccc2cc(O)cc(-c3nc4c5c(nc(OCC6(CN7CCC(=CF)CC7)CC6)nc5c3F)N3C[C@H]5CC[C@H](N5)[C@H]3[C@H](CC)O4)c12 [Example 137, 4-((5S,5aS,6S,9R)-12-((1-((4-(fluoromethylene)piperidin-1-yl)methyl)cyclopropyl)methoxy)-5-ethyl-1-fluoro-5a,6,7,8,9,10-hexahydro-5H-4-oxa-3,10a,11,13,14-pentaaza-6,9-methylnaphtho[1,8-ab]hept-2-yl)-5-ethynyl-6-fluoronaphthalen-2-ol]	0.41 nM	–	5.8 nM	9.7%	793 ng·h/mL	1630 ng/mL	21 mL/min/kg	11.3 h	2110 ng·h/mL	271 ng/mL	6.2 h	4 h
